Laboratory results taken from patent US12018021B2 (UCB Biopharma SRL, priority 2018, dated 2024).

biological target: IgE-Tb / FcεRIα-Y131A-AF488 (Homo sapiens, UniProt P01854); test: IgE-Tb / FcεRIα-Y131A-AF488 FRET assay (protocol for examples 1 to 233); assay type: binding; details: examples 1 to 233: 5 nM IgE-Tb, 25 nM FcεRIα-Y131A-AF488, incubated 2 hours at room temperature; read-out: Y131A FRET IC50 range
How it was run: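 Compounds (top final concentration usually 10 μM, 3-fold, 10 points, 2% DMSO) incubated 2 h at room temperature with IgE-Tb (5 nM) and FcεRIα-Y131A-AF488 (25 nM). Background from 200 nM unlabelled receptor subtracted; FRET ratio 520/495 nm after 330 nm excitation gave percent inhibition, fitted four-parameter for IC50.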

IgE-Tb / FcεRIα-Y131A-AF488, sequence (P01854 1-427 limits assumed, stated change not applied): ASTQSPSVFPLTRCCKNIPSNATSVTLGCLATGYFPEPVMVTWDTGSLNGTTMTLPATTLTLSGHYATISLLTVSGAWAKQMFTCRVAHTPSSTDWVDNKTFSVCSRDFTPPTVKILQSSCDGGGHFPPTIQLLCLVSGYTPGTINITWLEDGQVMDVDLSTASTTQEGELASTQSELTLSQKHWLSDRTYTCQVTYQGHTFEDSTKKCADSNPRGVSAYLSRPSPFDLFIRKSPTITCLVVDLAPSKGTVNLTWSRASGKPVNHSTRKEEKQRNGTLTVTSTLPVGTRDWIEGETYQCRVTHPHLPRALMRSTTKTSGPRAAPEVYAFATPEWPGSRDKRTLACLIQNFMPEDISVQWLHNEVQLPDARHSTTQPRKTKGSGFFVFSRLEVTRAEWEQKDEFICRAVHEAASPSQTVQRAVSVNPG

Row | SMILES | IC50
1 | CC(C)C(=O)Nc1nncn1[C@H]1CCc2sc(NC(=O)C3CC3)c(C(=O)NCC3CC3)c2C1 [Example 213, (5S)-2-(cyclopropanecarbonylamino)-N-(cyclopropylmethyl)-5-[3-(2-methylpropanoylamino)-1,2,4-triazol-4-yl]-4,5,6,7-tetrahydrobenzothiophene-3-carboxamide] | < 1000 nM
2 | Nc1nccn1[C@H]1CCc2sc(NC(=O)C3CC3)c(C(=O)NCC3CC3)c2C1 [Example 186, (5S)-5-(2-Aminoimidazol-1-yl)-2-(cyclopropanecarbonylamino)-N-(cyclopropylmethyl)-4,5,6,7-tetrahydrobenzothiophene-3-carboxamide] | < 1000 nM
3 | CCOc1c(NC2CCc3sc(NC(=O)C4CC4)c(S(=O)(=O)NCC4CC4)c3C2)c(=O)c1=O (stereo not drawn) [Example 36, N-[3-(Cyclopropylmethylsulfamoyl)-5-[(2-ethoxy-3,4-dioxo-cyclobuten-1-yl)amino]-4,5,6,7-tetrahydrobenzothiophen-2-yl]cyclopropanecarboxamide] | < 1000 nM
4 | O=C(NCC1CC1)c1c(NC(=O)C2CC2)sc2c1C[C@@H](n1cnnc1N[C@H]1CCOC1)CC2 [Example 143, (5S)-2-(cyclopropanecarbonylamino)-N-(cyclopropylmethyl)-5-[3-[[(3S)-tetrahydrofuran-3-yl]amino]-1,2,4-triazol-4-yl]-4,5,6,7-tetrahydrobenzothiophene-3-carboxamide] | < 1000 nM
5 | O=C(Nc1cccc(-c2ccno2)c1)C1CCc2sc(NC(=O)C3CC3)c(S(=O)(=O)NCC3CC3)c2C1 (stereo not drawn) [Example 35, 2-(Cyclopropanecarbonylamino)-3-(cyclopropylmethylsulfamoyl)-N-(3-isoxazol-5-ylphenyl)-4,5,6,7-tetrahydrobenzothiophene-5-carboxamide] | < 1000 nM
6 | CCOC(=O)C1CCc2sc(NC(=O)C3CC3)c(C(=O)NCC3CC3)c2C1 (stereo not drawn) [Example 39, Ethyl 2-(cyclopropanecarbonylamino)-3-(cyclopropylmethylcarbamoyl)-4,5,6,7-tetrahydrobenzothiophene-5-carboxylate] | 1000 to 10000 nM
7 | O=C(OCC1CC1)c1c(NC(=O)C2CC2)sc2c1CC(n1cnnc1Nc1cccnc1)CC2 (stereo not drawn) [Example 94, Cyclopropylmethyl 2-(cyclopropanecarbonylamino)-5-[3-(3-pyridylamino)-1,2,4-triazol-4-yl]-4,5,6,7-tetrahydrobenzothiophene-3-carboxylate] | < 1000 nM
8 | N#CN=C(NCC(F)(F)F)NC1CCc2sc(NC(=O)C3CC3)c(C(=O)NCC3CC3)c2C1 (stereo not drawn) [Example 121, 5-[[N′-cyano-N-(2,2,2-trifluoroethyl)carbamimidoyl]amino]-2-(cyclopropanecarbonylamino)-N-(cyclopropylmethyl)-4,5,6,7-tetrahydrobenzothiophene-3-carboxamide] | < 1000 nM
9 | O=C(NCC1CC1)c1c(NC(=O)C2CC2)sc2c1CC(Nc1nc(=O)cc(C(F)(F)F)[nH]1)CC2 (stereo not drawn) [Example 210, 2-(Cyclopropanecarbonylamino)-N-(cyclopropylmethyl)-5-[[4-oxo-6-(trifluoromethyl)-1H-pyrimidin-2-yl]amino]-4,5,6,7-tetrahydrobenzothiophene-3-carboxamide] | < 1000 nM
